Laboratory results as given in patent US20060074035A1, “Dinucleotide inhibitors of de novo RNA polymerases for treatment or prevention of viral infections” (priority 2002, published 2006).

Tests used:
Assay type in all cases: biochemical
HCV NS5B = target: T1, HCV NS5B (Hepatitis C virus genotype 1a, UniProt P27958); experiment: HCV NS5B de novo initiation assay, GTP as initiation nucleotide
T1 construct: a particularly preferred RNA polymerases is the HCV NS5B polypeptide
Text: (§1) In vitro RNA-dependent RNA polymerase assay was used to evaluate activity of dinucleotide compounds as inhibitors of HCV polymerase. Examples of such compounds are illustrated below as compounds A and B in.

HCV polymerase [1] = target: T2, HCV polymerase (Hepatitis C virus genotype 1a, UniProt P27958); experiment: GpC dinucleotide-primed RNA synthesis
T2 construct: a particularly preferred RNA polymerases is the HCV NS5B polypeptide
Text: (§2) It was also observed that certain dinucleotide analogues were able to inhibit dinucleotide-primed RNA synthesis. […] Furthermore, this inhibitory activity is sequence specific. When a different dinucleotide primer (GpG) was used to prime RNA synthesis from the. […] These observations further support the model that base pairing capability between the dinucleotide compound and the template terminal bases is important for achieving sufficient inhibition of HCV polymerase.

HCV polymerase [2] = target: T2, HCV polymerase; experiment: GpG dinucleotide-primed RNA synthesis; conditions: dinucleotide primer GpG; RNA template 5′ AAAAAAAACC 3′; FIG. 4
Text: as §2

HCV polymerase [3] = target: T2, HCV polymerase; experiment: HCV NS5B de novo initiation assay, ATP as initiation nucleotide
Method: as §1
To further determine whether this inhibitory effect of HCV polymerase is specific for a particular initiation nucleotide, de novo initiation assay was performed using ATP as the initiation nucleotide (template RNA: 5′ AAAAAAAAGU 3′).

T2 sequence (P27958 2421-3011): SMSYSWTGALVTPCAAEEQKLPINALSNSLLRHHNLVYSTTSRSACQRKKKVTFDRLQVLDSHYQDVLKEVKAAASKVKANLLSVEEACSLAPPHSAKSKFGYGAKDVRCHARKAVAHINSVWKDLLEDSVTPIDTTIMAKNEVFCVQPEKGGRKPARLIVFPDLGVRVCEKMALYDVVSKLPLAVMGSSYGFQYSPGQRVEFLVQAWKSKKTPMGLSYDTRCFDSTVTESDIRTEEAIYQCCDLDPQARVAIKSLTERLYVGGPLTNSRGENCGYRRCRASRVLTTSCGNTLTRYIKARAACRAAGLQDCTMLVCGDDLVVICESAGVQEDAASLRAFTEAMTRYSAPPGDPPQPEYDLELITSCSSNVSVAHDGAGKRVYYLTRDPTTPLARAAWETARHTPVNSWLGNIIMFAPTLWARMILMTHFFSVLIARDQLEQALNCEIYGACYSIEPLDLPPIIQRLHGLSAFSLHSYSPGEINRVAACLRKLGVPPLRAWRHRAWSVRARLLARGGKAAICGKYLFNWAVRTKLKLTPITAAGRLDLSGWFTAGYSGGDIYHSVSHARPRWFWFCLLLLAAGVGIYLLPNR
T1 sequence (P27958 2421-3011): as above

SMILES: COC1[C@@H](COP(O)(=S)OC2[C@@H](COP(=O)(O)O)O[C@@H](n3cnc4c(=O)[nH]c(N)nc43)[C@H]2OC)O[C@@H](n2ccc(N)nc2=O)[C@H]1O (stereo partly shown) [compound B]
- IC50 (HCV NS5B): 65 µM
- IC50 (HCV polymerase [1]): ~80 µM
- inhibition of polymerase activity (GpG-primed RNA synthesis) (HCV polymerase [2]): lost the ability to inhibit the polymerase activity

SMILES: COC1C(OP(O)(=S)OCC2CC(O)C(n3ccc(N)nc3=O)O2)C(COP(=O)(O)O)OC1n1cnc2c(=O)[nH]c(N)nc21 (stereo not shown) [compound A]
- IC50 (HCV NS5B): 20 µM
- IC50 (HCV polymerase [1]): 50 µM
- IC50 (HCV polymerase [3]): ~90 µM
- inhibition of polymerase activity (GpG-primed RNA synthesis) (HCV polymerase [2]): lost the ability to inhibit the polymerase activity
